Experimental data published in article PMC7004565, “Nucleotide inhibition of the pancreatic ATP-sensitive K^+ channel explored with patch-clamp fluorometry” (eLife, 2020).
Several values for one entry are separate records, joined by “and”; a condition that tells them apart may be missing. Identical values can stand only once.

How the values were obtained:
Kir6.2-GFP + SUR1 = Kir6.2-GFP + SUR1 (Homo sapiens, UniProt Q14654); assay: FRET (ANAP quenching) nucleotide binding in unroofed membranes; parameters: full length, fully ANAP-labelled Kir6.2 protein was produced and successfully trafficked to the membrane in the presence of SUR1; expressed in transfected cells; host or cells: HEK-293T; conditions: Hill fit
Kir6.2-GFP + SUR1, sequence (Q14654 whole entry, the tested form may be a part): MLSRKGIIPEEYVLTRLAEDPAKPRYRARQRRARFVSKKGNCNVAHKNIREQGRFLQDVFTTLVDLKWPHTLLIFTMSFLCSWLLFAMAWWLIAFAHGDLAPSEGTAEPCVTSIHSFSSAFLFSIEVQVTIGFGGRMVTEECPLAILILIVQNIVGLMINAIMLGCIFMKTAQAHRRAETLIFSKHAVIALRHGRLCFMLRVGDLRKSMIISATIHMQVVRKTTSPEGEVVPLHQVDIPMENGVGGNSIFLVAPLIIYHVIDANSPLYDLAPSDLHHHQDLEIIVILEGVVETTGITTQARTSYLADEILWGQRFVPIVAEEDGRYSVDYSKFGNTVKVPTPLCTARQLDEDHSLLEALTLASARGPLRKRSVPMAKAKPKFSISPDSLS
Kir6.2-GFP + SUR1, sequence (Q09428 whole entry partner, the tested form may be a part): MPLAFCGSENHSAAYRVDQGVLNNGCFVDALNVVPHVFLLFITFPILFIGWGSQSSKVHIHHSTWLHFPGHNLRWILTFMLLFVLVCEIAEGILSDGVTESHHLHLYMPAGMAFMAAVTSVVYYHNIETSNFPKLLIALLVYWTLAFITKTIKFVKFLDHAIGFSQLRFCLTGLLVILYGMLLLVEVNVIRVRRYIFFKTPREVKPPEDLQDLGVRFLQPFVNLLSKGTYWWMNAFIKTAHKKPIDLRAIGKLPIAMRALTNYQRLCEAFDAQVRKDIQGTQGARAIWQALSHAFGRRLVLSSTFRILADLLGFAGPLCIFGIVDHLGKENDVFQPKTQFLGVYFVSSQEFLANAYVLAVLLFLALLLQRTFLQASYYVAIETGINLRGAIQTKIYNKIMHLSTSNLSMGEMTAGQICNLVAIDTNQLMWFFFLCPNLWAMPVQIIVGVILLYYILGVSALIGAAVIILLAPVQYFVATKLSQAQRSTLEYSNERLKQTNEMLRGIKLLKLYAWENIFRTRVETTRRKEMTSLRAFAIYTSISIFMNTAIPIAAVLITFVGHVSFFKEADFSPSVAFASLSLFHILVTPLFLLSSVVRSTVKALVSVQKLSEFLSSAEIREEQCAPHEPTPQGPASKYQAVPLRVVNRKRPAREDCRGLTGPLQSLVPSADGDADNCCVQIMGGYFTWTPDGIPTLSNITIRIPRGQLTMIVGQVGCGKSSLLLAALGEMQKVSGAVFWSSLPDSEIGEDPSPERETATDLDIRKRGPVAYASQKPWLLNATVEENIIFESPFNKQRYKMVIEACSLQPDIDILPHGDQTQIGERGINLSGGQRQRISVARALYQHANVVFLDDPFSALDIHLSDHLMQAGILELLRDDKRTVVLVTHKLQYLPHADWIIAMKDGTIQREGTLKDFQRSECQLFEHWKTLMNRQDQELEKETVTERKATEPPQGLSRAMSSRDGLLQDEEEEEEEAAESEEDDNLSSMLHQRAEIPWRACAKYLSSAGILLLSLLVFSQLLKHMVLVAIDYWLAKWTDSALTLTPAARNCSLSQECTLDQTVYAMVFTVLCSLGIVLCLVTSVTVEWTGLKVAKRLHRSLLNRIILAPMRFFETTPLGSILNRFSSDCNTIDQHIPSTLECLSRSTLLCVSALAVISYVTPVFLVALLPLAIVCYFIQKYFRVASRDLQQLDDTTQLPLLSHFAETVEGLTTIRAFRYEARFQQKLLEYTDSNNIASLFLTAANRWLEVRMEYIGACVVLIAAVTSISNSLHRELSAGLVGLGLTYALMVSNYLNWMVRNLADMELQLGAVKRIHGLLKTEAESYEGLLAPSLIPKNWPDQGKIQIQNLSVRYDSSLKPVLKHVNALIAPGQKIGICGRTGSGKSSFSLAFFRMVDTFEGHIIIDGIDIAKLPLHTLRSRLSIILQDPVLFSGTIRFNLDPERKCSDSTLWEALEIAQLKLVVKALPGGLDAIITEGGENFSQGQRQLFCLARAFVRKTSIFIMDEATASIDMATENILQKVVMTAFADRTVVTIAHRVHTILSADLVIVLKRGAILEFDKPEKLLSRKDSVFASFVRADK
Source text: To measure nucleotide binding, cells transfected with Kir6.2*-GFP + SUR1 were briefly sonicated, leaving behind unroofed plasma membrane fragments ([Heuser, 2000]; [Zagotta et al., 2016]; [Puljung et al., 2019]) containing ANAP-labelled KATP channels with the intracellular nucleotide-binding sites exposed to the bath solution. The sample was excited with a 385 nm LED and emitted fluorescence from the membrane fragments was passed through a spectrometer, allowing us to separate ANAP, GFP, and TNP-ATP fluorescence by peak wavelength (Figure 1E,F). As expected from FRET, increasing the concentration of TNP-ATP caused a decrement in the ANAP peak at 472 nm and a concomitant increase in the TNP-ATP peak at 561 nm (Figure 1F). We used the quenching of the ANAP peak as a direct measure of TNP-ATP binding as this signal was specific to KATP. In contrast, the peak TNP-ATP fluorescence may include contributions from both specific and non-specific nucleotide binding, as well as direct excitation of TNP-ATP in solution by the 385 nm excitation light. Due to the sharp cut-off of the GFP emission spectrum at shorter wavelengths, our measurements of peak ANAP fluorescence were unaffected by the presence of the GFP tag on Kir6.2. […]
Epifluorescence imaging and spectroscopy were performed using a Nikon Eclipse TE2000-U microscope with a 60x water immersion objective (Plan Apo VC, NA = 1.2, Nikon; Kingston upon Thames, UK) or a 100x oil immersion objective (Nikon, Apo TIRF, NA = 1.49). […] Fluorescence spectra were collected by exciting ANAP as above but using a 400 nm long-pass emission filter (ThorLabs), then passing emitted light through an IsoPlane 160 Spectrometer (Princeton Instruments; Trenton, NJ) with a 300 grooves mm^-1 grating. […]
Unroofed membranes were prepared as described previously ([Heuser, 2000]; [Zagotta et al., 2016]; [Puljung et al., 2019]). […] Unroofed membrane fragments were nearly invisible in bright-field images and identified by their GFP and ANAP fluorescence. […]

Kir6.2*-GFP + SUR-K205E = molecular target: T1, Kir6.2*-GFP + SUR-K205E (Homo sapiens, UniProt Q14654); assay: Current inhibition in excised inside-out patches (patch-clamp fluorometry); format: biochemical; conditions: Mg2+-free, Hill fit
T1 construct: ANAP labelling is specific and only full-length Kir6.2 is expressed at the cell membrane; expressed in transfected cells; host or cells: HEK-293T
T1 sequence (Q14654 whole entry, stated change not applied): as the sequence (Q14654 whole entry, the tested form may be a part) above
T1 sequence (Q09428 whole entry K205E partner): as the sequence (Q09428 whole entry partner, the tested form may be a part) above, with K205E counted along it
Source text: (§1) We introduced a charge neutralization (alanine, K205A) and a charge reversal (glutamate, K205E) mutation at this position and measured simultaneous nucleotide binding and current inhibition with PCF (Figure 4B,C,D). The binding and inhibition curves for TNP-ATP almost perfectly overlaid for the SUR1-K205A mutant (Figure 4C). The same was also true for SUR1-K205E (Figure 4D). Data were fit with the MWC-type model as before. […] This was reflected by a decrease in the estimated KA for TNP-ATP, which correlated with the degree of conservation of the mutation, that is we observed a larger effect for the charge reversal compared to the charge neutralization mutation (Figure 4E). However, in addition to direct effects of K205 on nucleotide binding, we also observed a shift in D for both mutations (Figure 4E).
(§2) Currents were measured as described above.

Kir6.2*-GFP + SUR-K205A = molecular target: T2, Kir6.2*-GFP + SUR-K205A (Homo sapiens, UniProt Q14654); assay: as above; format: biochemical; conditions: Mg2+-free, Hill fit
T2 construct: ANAP labelling is specific and only full-length Kir6.2 is expressed at the cell membrane; expressed in transfected cells; host or cells: HEK-293T
T2 sequence (Q14654 whole entry, stated change not applied): as the sequence (Q14654 whole entry, the tested form may be a part) above
T2 sequence (Q09428 whole entry K205A partner): as the sequence (Q09428 whole entry partner, the tested form may be a part) above, with K205A counted along it
Source text: as §1, §2

Nc1ncnc2c1ncn2[C@@H]1O[C@H](COP(=O)(O)OP(=O)(O)OP(=O)(O)O)[C@H]2OC3(O[C@H]21)C([N+](=O)[O-])=CC(=[N+]([O-])[O-])C=C3[N+](=O)[O-] (stereo partly shown) [TNP-ATP, trinitrophenyl-ATP] was tested, and the “h (Hill coefficient) fluorescence quenching” value (Kir6.2-GFP + SUR1) was 0.82, the Emax (Kir6.2-GFP + SUR1; fraction, read-out: Emax fluorescence quenching) was 93% and the EC50 (Kir6.2-GFP + SUR1; n = 18, read-out: EC50 fluorescence quenching) was 25.6 µM and 25.7 µM. For the same molecule, the “h (Hill coefficient) current inhibition” value (Kir6.2*-GFP + SUR-K205E) was 0.79, the IC50 (Kir6.2*-GFP + SUR-K205E; n = 9) was 631 µM and the “h (Hill coefficient) current inhibition” value (Kir6.2*-GFP + SUR-K205A) was 0.75. It also gave an IC50 (Kir6.2*-GFP + SUR-K205A; n = 9) of 166 µM.
